Measurements as given in patent publication US8389557B2, “Triazole derivatives useful as Axl inhibitors” (Rigel Pharmaceuticals, Inc., priority 2005, dated 2013).
Values belong to the molecule of their own block, whether it stands above or below them.

Molecular target: T1, Axl (Homo sapiens, UniProt P30530)
T1 construct: endogenous in cells; host or cells: HeLa cells
T1 sequence (P30530 26-894): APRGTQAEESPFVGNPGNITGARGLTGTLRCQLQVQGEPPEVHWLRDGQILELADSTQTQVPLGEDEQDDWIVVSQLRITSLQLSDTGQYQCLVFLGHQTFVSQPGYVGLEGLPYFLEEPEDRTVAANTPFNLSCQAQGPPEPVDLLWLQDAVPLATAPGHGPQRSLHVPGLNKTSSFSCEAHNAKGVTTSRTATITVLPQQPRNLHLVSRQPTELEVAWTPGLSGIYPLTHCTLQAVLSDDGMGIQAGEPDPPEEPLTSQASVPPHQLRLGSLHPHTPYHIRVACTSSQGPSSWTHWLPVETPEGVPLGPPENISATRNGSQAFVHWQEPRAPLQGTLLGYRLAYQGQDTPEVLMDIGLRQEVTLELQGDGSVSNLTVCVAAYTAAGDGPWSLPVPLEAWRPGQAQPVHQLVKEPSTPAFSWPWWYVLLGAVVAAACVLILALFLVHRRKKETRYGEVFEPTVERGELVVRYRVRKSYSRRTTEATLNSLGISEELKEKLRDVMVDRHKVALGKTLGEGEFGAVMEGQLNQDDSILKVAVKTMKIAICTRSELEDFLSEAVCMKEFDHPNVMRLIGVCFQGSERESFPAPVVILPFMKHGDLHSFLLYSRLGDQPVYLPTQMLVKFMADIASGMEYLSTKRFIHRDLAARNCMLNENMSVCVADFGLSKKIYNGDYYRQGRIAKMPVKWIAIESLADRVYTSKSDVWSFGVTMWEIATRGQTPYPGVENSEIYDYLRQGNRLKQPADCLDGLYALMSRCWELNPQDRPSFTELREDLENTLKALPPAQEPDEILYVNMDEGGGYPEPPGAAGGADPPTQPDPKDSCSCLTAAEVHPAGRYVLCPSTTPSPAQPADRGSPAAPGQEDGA
Experiment: Phospho-Akt in-cell Western assay (inhibition of Axl activity)
Format: cell-based
Method in brief: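 HeLa cells on poly-L-lysine, starved 24 h in 0.5% FCS DMEM with Axl/Fc 500 ng/mL, pre-treated with compound 1 h at 37° C. Axl stimulated 5 min by anti-Axl/anti-mouse antibody cross-linking. Fixed cells probed with anti-phospho-Akt and HRP secondary, chemiluminescence read.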

[1] = inhibition of Axl activity, phospho-Akt in-cell Western assay, Table 1
[2] = Table 3, Hela cells, Axl antibody cross-linking stimulation, phospho-Akt chemiluminescence
[3] = Table 4, Hela cells, Axl antibody cross-linking stimulation, phospho-Akt chemiluminescence
[4] = Table 6, Hela cells, Axl antibody cross-linking stimulation, phospho-Akt chemiluminescence
[5] = Table 5, Hela cells, Axl antibody cross-linking stimulation, phospho-Akt chemiluminescence

IC50 [1]: < 1 µM
SMILES: CN(C)c1ccc(C(=O)n2nc(Nc3ccc(OCCn4ccnc4)cc3)nc2N)cc1 [compound 373, 5-amino-1-(4-(dimethylamino)phenyl)carbonyl-3-[4-[2-(imidazol-1-yl)ethoxy]phenylamino]-1H-1,2,4-triazole]

IC50 [1]: 1 to 10 µM
SMILES: CN(C)c1cccc(C(=O)n2nc(Nc3ccc(OCCn4ccnc4)cc3)nc2N)c1 [compound 374, 5-amino-1-(3-(dimethylamino)phenyl)carbonyl-3-[4-[2-(imidazol-1-yl)ethoxy]phenylamino]-1H-1,2,4-triazole]

IC50 [2]: < 1 µM
SMILES: Nc1nc(Nc2ccc(OCCn3ccnc3)cc2)nn1C(=O)c1ccc2cc[nH]c2c1 [compound 375, 5-amino-1-(1H-indol-6-yl)carbonyl-3-[4-[2-(imidazol-1-yl)ethoxy]phenylamino]-1H-1,2,4-triazole]

IC50 [3]: < 1 µM
SMILES: Nc1nc(Nc2ccc(OCCn3ccnc3)cc2)n(C(=O)c2ccc3cc[nH]c3c2)n1 [compound 376, 3-amino-1-(1H-indol-6-yl)carbonyl-5-[4-[2-(imidazol-1-yl)ethoxy]phenylamino]-1H-1,2,4-triazole]

IC50 [2]: < 1 µM
SMILES: Nc1nc(Nc2ccc(OCCn3ccnc3)cc2)nn1C(=O)c1ccc2sccc2c1 [compound 377, 5-amino-1-(benzo[b]thiophen-5-yl)carbonyl-3-[4-[2-(imidazol-1-yl)ethoxy]phenylamino]-1H-1,2,4-triazole]

IC50 [3]: < 1 µM
SMILES: Nc1nc(Nc2ccc(OCCn3ccnc3)cc2)n(C(=O)c2ccc3sccc3c2)n1 [compound 378, 3-amino-1-(benzo[b]thiophen-5-yl)carbonyl-5-[4-[2-(imidazol-1-yl)ethoxy]phenylamino]-1H-1,2,4-triazole]

IC50 [2]: < 1 µM
SMILES: Nc1nc(Nc2ccc(OCCn3ccnc3)cc2)nn1C(=O)c1cc2ccccc2s1 [compound 379, 5-amino-1-(benzo[b]thiophen-2-yl)carbonyl-3-[4-[2-(imidazol-1-yl)ethoxy]phenylamino]-1H-1,2,4-triazole]

IC50 [1]: < 1 µM
SMILES: COc1ccc(C(=O)n2nc(Nc3ccc(OCCN4CCCC4)cc3)nc2N)cc1F [compound 381, 5-amino-1-(3-fluoro-4-methoxyphenyl)carbonyl-3-[4-[2-(pyrrolidin-1-yl)ethoxy]phenylamino]-1H-1,2,4-triazole]

IC50 [1]: < 1 µM
SMILES: Nc1nc(Nc2ccc(OCCN3CCCC3)cc2)nn1C(=O)c1ccc(N2CCOCC2)cc1 [compound 382, 5-amino-1-(4-(morpholin-4-yl)phenyl)carbonyl-3-[4-[2-(pyrrolidin-1-yl)ethoxy]phenylamino]-1H-1,2,4-triazole]

IC50 [1]: < 1 µM
SMILES: CN1CCN(c2ccc(C(=O)n3nc(Nc4ccc(OCCN5CCCC5)cc4)nc3N)cc2)CC1 [compound 383, 5-amino-1-(4-(4-methylpiperazin-1-yl)phenyl)carbonyl-3-[4-[2-(pyrrolidin-1-yl)ethoxy]phenylamino]-1H-1,2,4-triazole]

SMILES: CC(C)(C)Oc1ccc(C(=O)n2nc(Nc3ccc(OCCN4CC[C@H](F)C4)cc3)nc2N)cc1 [compound 384, 5-amino-1-(4-(tert-butoxy)phenyl)carbonyl-3-[4-[2-((S)-3-fluoropyrrolidin-1-yl)ethoxy]phenylamino]-1H-1,2,4-triazole]
IC50 [1]: < 1 µM

IC50 [1]: < 1 µM
SMILES: CN(C)c1ccc(C(=O)n2nc(Nc3ccc(OCCN4CC[C@H](F)C4)cc3)nc2N)cc1 [compound 385, 5-amino-1-(4-(dimethylamino)phenyl)carbonyl-3-[4-[2-((S)-3-fluoropyrrolidin-1-yl)ethoxy]phenylamino]-1H-1,2,4-triazole]

IC50 [2]: < 1 µM
SMILES: Nc1nc(Nc2ccc(OCCN3CC[C@H](F)C3)cc2)nn1C(=O)c1ccc2c(c1)OCCO2 [compound 386, 5-amino-1-(1,4-benzodioxan-6-yl)carbonyl-3-[4-[2-((S)-3-fluoropyrrolidin-1-yl)ethoxy]phenylamino]-1H-1,2,4-triazole]

IC50 [3]: < 1 µM
SMILES: Nc1nc(Nc2ccc(OCCN3CC[C@H](F)C3)cc2)n(C(=O)c2ccc3c(c2)OCCO3)n1 [compound 387, 3-amino-1-(1,4-benzodioxan-6-yl)carbonyl-5-[4-[2-((S)-3-fluoropyrrolidin-1-yl)ethoxy]phenylamino]-1H-1,2,4-triazole]

IC50 [2]: < 1 µM
SMILES: Nc1nc(Nc2ccc(OCCN3CC[C@H](F)C3)cc2)nn1C(=O)c1ccc2cc[nH]c2c1 [compound 388, 5-amino-1-(1H-indol-6-yl)carbonyl-3-[4-[2-((S)-3-fluoropyrrolidin-1-yl)ethoxy]phenylamino]-1H-1,2,4-triazole]

IC50 [3]: < 1 µM
SMILES: Nc1nc(Nc2ccc(OCCN3CC[C@H](F)C3)cc2)n(C(=O)c2ccc3cc[nH]c3c2)n1 [compound 389, 3-amino-1-(1H-indol-6-yl)carbonyl-5-[4-[2-((S)-3-fluoropyrrolidin-1-yl)ethoxy]phenylamino]-1H-1,2,4-triazole]

IC50 [1]: < 1 µM
SMILES: COc1c(F)cc(C(=O)n2nc(Nc3ccc(OCCN4CCCC4)cc3)nc2N)cc1F [compound 390, 5-amino-1-(3,5-difluoro-4-methoxyphenyl)carbonyl-3-[4-[2-(pyrrolidin-1-yl)ethoxy]phenylamino]-1H-1,2,4-triazole]

IC50 [4]: > 20 µM
SMILES: CS(=O)(=O)N1CCC(Nc2nc(N)nn2C(=O)c2c(F)cccc2F)CC1 [compound 391, 3-amino-1-(2,6-difluorophenyl)carbonyl-5-(1-methylsulfonylpiperidin-4-yl)amino-1H-1,2,4-triazole]

IC50 [5]: > 20 µM
SMILES: CS(=O)(=O)N1CCC(Nc2nc(N)n(C(=O)c3c(F)cccc3F)n2)CC1 [compound 392, 5-amino-1-(2,6-difluorophenyl)carbonyl-3-(1-methylsulfonylpiperidin-4-yl)amino-1H-1,2,4-triazole]

SMILES: CC(C)(C)Oc1ccc(C(=O)n2nc(NC3CCN(S(C)(=O)=O)CC3)nc2N)cc1 [compound 393, 5-amino-1-(4-(tert-butoxy)phenyl)carbonyl-3-(1-methylsulfonylpiperidin-4-yl)amino-1H-1,2,4-triazole]
IC50 [5]: > 20 µM

IC50 [5]: > 20 µM
SMILES: CN(C)c1ccc(C(=O)n2nc(NC3CCN(S(C)(=O)=O)CC3)nc2N)cc1 [compound 395, 5-amino-1-(4-(dimethylamino)phenyl)carbonyl-3-(1-methylsulfonylpiperidin-4-yl)amino-1H-1,2,4-triazole]

IC50 [4]: > 20 µM
SMILES: CN(C)c1ccc(C(=O)n2nc(N)nc2NC2CCN(S(C)(=O)=O)CC2)cc1 [compound 396, 3-amino-1-(4-(dimethylamino)phenyl)carbonyl-5-(1-methylsulfonylpiperidin-4-yl)amino-1H-1,2,4-triazole]

IC50 (Table 9, Hela cells, Axl antibody cross-linking stimulation, phospho-Akt chemiluminescence): > 20 µM
SMILES: CS(=O)(=O)N1CCC(Nc2nc(N)n(C(=O)c3ccc4c(c3)OCCO4)n2)CC1 [compound 397, 5-amino-1-(1,4-benzodioxan-6-yl)carbonyl-3-(1-methylsulfonylpiperidin-4-yl)amino-1H-1,2,4-triazole]

IC50 [5]: > 20 µM
SMILES: CS(=O)(=O)N1CCC(Nc2nc(N)n(C(=O)c3ccc(N4CCOCC4)cc3)n2)CC1 [compound 399, 5-amino-1-(4-(morpholin-4-yl)phenyl)carbonyl-3-(1-methylsulfonylpiperidin-4-yl)amino-1H-1,2,4-triazole]

IC50 [1]: < 1 µM
SMILES: Nc1nc(Nc2ccc(OCCN3CCCC3)cc2)nn1C(=O)c1ccc(N2CCS(=O)(=O)CC2)cc1 [compound 400, 5-amino-1-(4-(1,1-dioxo-thiomorpholin-4-yl)phenyl)carbonyl-3-[4-[2-(pyrrolidin-1-yl)ethoxy]phenylamino]-1H-1,2,4-triazole]

IC50 [1]: < 1 µM
SMILES: Nc1nc(Nc2ccc(OCCN3CCCC3)cc2)nn1C(=O)c1ccc(N2CCCCC2)cc1 [compound 401, 5-amino-1-(4-(piperidin-1-yl)phenyl)carbonyl-3-[4-[2-(pyrrolidin-1-yl)ethoxy]phenylamino]-1H-1,2,4-triazole]

IC50 [1]: > 20 µM
SMILES: Nc1nc(Nc2ccc(OCCN3CCCC3)c(Cl)c2)nn1C(=O)c1cc(Cl)cc(Cl)c1 [compound 402, 5-amino-3-[3-chloro-4-[2-(pyrrolidin-1-yl)ethoxy]phenylamino]-1-(3,5-dichlorophenyl)carbonyl-1H-1,2,4-triazole]

SMILES: CC(C)(C)Oc1ccc(C(=O)n2nc(Nc3ccc(OCCN4CCCC4)cc3)nc2N)cc1 [compound #1, 5-Amino-3-[4-[2-(pyrrolidin-1-yl)ethoxy]phenylamino]-1-(4-(tert-butoxy)phenyl)carbonyl-1H-1,2,4-triazole]
IC50 [1]: < 1 µM

IC50 [1]: < 1 µM
SMILES: CN(C)c1ccc(C(=O)n2nc(Nc3ccc(OCCN4CCCCC4)cc3)nc2N)cc1 [compound #2, 5-Amino-1-(4-(dimethylamino)phenyl)carbonyl-3-[4-[2-(piperidin-1-yl)ethoxy]phenylamino]-1H-1,2,4-triazole]
